Test results published in patent publication US20100075960A1 (priority 2006, published 2010).
Counter-ions that a name gives are not always drawn.

Tested on: HCT116
Assay: Inhibition of cell proliferation, HCT116
Type: cell-based
Details: Homo sapiens, HCT-116; 72 h treatment; methylene blue or CellTiter-Glo
Experimental: II. Inhibition of Cell Proliferation by PLK1 Inhibitors.
Exponentially growing cell lines of different tumor origins, cultured in appropriate media containing 10% fetal bovine serum at 37° C. in a 5% CO2 incubator were plated in 96 or 384-well plates. Twenty four hours post-plating, cells were treated with different concentrations of test compounds ranging from 20 μM to 0.04 nM. Several wells were left untreated as a control. Seventy two hours post-treatment, cell numbers were determined using different techniques; 100 μl per well of methylene blue (Sigma M9140) (0.5% in 50:50 Ethanol:water), or 10-100 μl per well of CellTiter-Glo (Promega #G7573), depending on well size. For methylene blue staining, stain was incubated at room temperature for 30 minutes before plates were rinsed and dye solubilized in 1% N-lauroyl sarcosine, sodium salt, (Sigma L5125, in PBS). Plates were read on a microplate reader, measuring the OD at 620 nm. For CellTiter-Glo, plates were incubated at room temperature for 15 minutes and the chemiluminescent signal was read on the Victor V or Envison 2100 reader.
Percent inhibition of cell growth was expressed as percent proliferation relative to 100% proliferation (control). Concentration of test compound that inhibited 50% of cell growth (IC50) was determined by 4 parameter fit of data using XLfit, (value of no cell control was substracted from all samples for background). The data are shown in Table 1 and Table 2 below and represent a compilation of several different experiments each performed using the general parameters outlined above, although minor variations may have been employed in some instances, in Table 1 and Table 2, +=IC50>1 μM; ++=IC50 0.5-1 μM: +++=IC50<0.5 μM.

Compound | IC50
C[C@@H](Oc1cc(-n2cnc3cc(Cl)ccc32)sc1C(N)=O)c1cccc(OC2CCN(CCN)CC2)c1Cl [Example 22, 3-{[(1R)-1-(3-{[1-(2-aminoethyl)-4-piperidinyl]oxy}-2-chlorophenyl)ethyl]oxy}-5-(5-chloro-1H-benzimidazol-1-yl)-2-thiophenecarboxamide] | < 500 nM
C[C@@H](Oc1cc(-n2cnc3cc(Cl)ccc32)sc1C(N)=O)c1cccc(OC2CCN(CCS(C)(=O)=O)CC2)c1Cl [Example 23, 5-(5-Chloro-1H-benzimidazol-1-yl)-3-({(1R)-1-[2-chloro-3-({1-[2-(methylsulfonyl)ethyl]-4-piperidinyl}oxy)phenyl]ethyl}oxy)-2-thiophenecarboxamide] | < 500 nM
CC(C)N1CCC(Oc2cccc([C@@H](C)Oc3cc(-n4cnc5cc(Cl)ccc54)sc3C(N)=O)c2Cl)CC1 [Example 24, 5-(5-Chloro-1H-benzimidazol-1-yl)-3-{[(1R)-1-(2-chloro-3-{[1-(1-methylethyl)-4-piperidinyl]oxy}phenyl)ethyl]oxy}-2-thiophenecarboxamide] | < 500 nM
C[C@@H](Oc1cc(-n2cnc3cc(-c4cnn(C)c4)ccc32)sc1C(N)=O)c1cccc(OCCN2CCOCC2)c1Cl [Example 25, 3-{[(1R)-1-(2-chloro-3-{[2-(4-morpholinyl)ethyl]oxy}phenyl)ethyl]oxy}-5-[5-(1-methyl-1H-pyrazol-4yl)-1H-benzimidazol-1-yl]-2-thiophenecarboxamide] | < 500 nM
C[C@@H](Oc1cc(-n2cnc3cc(Cl)ccc32)sc1C(N)=O)c1cccc(OCCN2CCOCC2)c1Cl [Example 26, 5-(5-Chloro-1H-benzimidazol-1-yl)-3-{[(1R)-1-(2-chloro-3-{[2-(4-morpholinyl)ethyl]oxy}phenyl)ethyl]oxy}-2-thiophenecarboxamide] | < 500 nM
C[C@@H](Oc1cc(-n2cnc3cc(Cl)ccc32)sc1C(N)=O)c1cccc(OC[C@H]2CNCCO2)c1Cl [Example 27, 5-(5-Chloro-1H-benzimidazol-1-yl)-3-{[(1R)-1-(2-chloro-3-{[(2R)-2-morpholinomethyl]oxy}phenyl)ethyl]oxy}-2-thiophenecarboxamide] | < 500 nM
C[C@@H](Oc1cc(-n2cnc3cc(Cl)ccc32)sc1C(N)=O)c1cccc(OC[C@@H]2CNCCO2)c1Cl [Example 28, 5-(5-Chloro-1H-benzimidazol-1-yl)-3-{[(1R)-1-(2-chloro-3-{[(2S)-2-morpholinomethyl]oxy}phenyl)ethyl]oxy}-2-thiophenecarboxamide] | < 500 nM
C[C@@H](Oc1cc(-n2cnc3cc(-c4cnn(C)c4)ccc32)sc1C(N)=O)c1cccc(OC2CCN(CCF)CC2)c1Cl [Example 29, 3-{[(1R)-1-(2-Chloro-3-{[1-(2-fluoroethyl)-4-piperidinyl]oxy}phenyl)ethyl]oxy}-5-[5-(1-methyl-1H-pyrazol-4-yl)-1H-benzimidazol-1-yl]-2-thiophenecarboxamide] | < 500 nM
C[C@@H](Oc1cc(-n2cnc3cc(-c4cnn(C)c4)ccc32)sc1C(N)=O)c1cccc(OC2CCN(CCC(F)(F)F)CC2)c1Cl [Example 30, 3-{[(1R)-1-(2-chloro-3-{[1-(3,3,3-trifluoropropyl)-4-piperidinyl]oxy}phenyl)ethyl]oxy}-5-[5-(1-methyl-1H-pyrazol-4-yl)-1H-benzimidazol-1-yl]-2-thiophenecarboxamide] | < 500 nM
C[C@@H](Oc1cc(-n2cnc3cc(Cl)ccc32)sc1C(N)=O)c1ccc(F)c(OC2CCN(C)CC2)c1Cl [Example 32, 5-(5-Chloro-1H-benzimidazol-1yl)-3-[((1R)-1-{2-chloro-4-fluoro-3-[(1-methyl-4-piperidinyl)oxy]phenyl}ethyl)oxy]-2-thiophenecarboxamide] | < 500 nM
C[C@@H](Oc1cc(-n2cnc3cc(-c4cnn(C)c4)ccc32)sc1C(N)=O)c1ccc(F)c(OC2CCNCC2)c1Cl [Example 33, 3-({(1R)-1-[2-Chloro-4-fluoro-3-(4-piperidinyloxy)phenyl]ethyl}oxy)-5-[5-(1-methyl-1H-pyrazol-4-yl)-1H-benzimidazol-1-yl]-2-thiophenecarboxamide] | < 500 nM
C[C@@H](Oc1cc(-n2cnc3cc(-c4cnn(C)c4)ccc32)sc1C(N)=O)c1ccc(F)c(OC2CCN(C)CC2)c1Cl [Example 34, 3-[((1R)-1-{2-Chloro-4-fluoro-3-[(1-methyl-4-piperidinyl)oxy]phenyl}ethyl)oxy]-5-[5-(1-methyl-1H-pyrazol-4-yl)-1H-benzimidazol-1-yl]-2-thiophenecarboxamide trifluoroacetate] | < 500 nM
C[C@@H](Oc1cc(-n2cnc3cc(-c4cnn(C)c4)ccc32)sc1C(N)=O)c1ccc(F)c(OC2CCN(CCF)CC2)c1Cl [Example 35, 3-{[(1R)-1-(2-Chloro-4-fluoro-3-{[1-(2-fluoroethyl)-4-piperidinyl]oxy}phenyl)ethyl]oxy}-5-[5-(1-methyl-1H-pyrazol-4-yl)-1H-benzimidazol-1-y]-2-thiophenecarboxamide] | < 500 nM
C[C@@H](Oc1cc(-n2cnc3cc(-c4cnn(C)c4)ccc32)sc1C(N)=O)c1ccc(F)c(OC2CCN(CCS(C)(=O)=O)CC2)c1Cl [Example 36, 3-({(1R)-1-[2-Chloro-4-fluoro-3-({1-[2-(methylsulfonyl)ethyl]-4-piperidinyl}oxy)phenyl]ethyl}oxy)-5-[5-(1-methyl-1H-pyrazol-4-yl)-1H-benzimidazol-1-yl]-2-thiophenecarboxamide] | < 500 nM
C[C@@H](Oc1cc(-n2cnc3cc(-c4cc[n+]([O-])cc4)ccc32)sc1C(N)=O)c1cccc(OC2CCNCC2)c1Cl [Example 37, 3-({(1R)-1-1-[2-Chloro-3-(4-piperidinyloxy)phenyl]ethyl}oxy)-5-[5-(1-oxido-4-pyridinyl)-1H-benzimidazol-1-yl]-2-thiophenecarboxamide] | > 1000 nM
C[C@@H](Oc1cc(-n2cnc3cc(-c4cnn(C)c4)ccc32)sc1C(N)=O)c1c(F)ccc(OC2CCN(C)CC2)c1Cl [Example 38, 3-[((1R)-1-{2-Chloro-6-fluoro-3-[(1-methyl-4-piperidinyl)oxy]phenyl}ethyl)oxy]-5-[5-(1-methyl-1H-pyrazol-4-yl)-1H-benzimidazol-1-yl]-2-thiophenecarboxamide] | < 500 nM
COc1cc2ncn(-c3cc(O[C@H](C)c4cccc(OCC5CCN(C(=O)OC(C)(C)C)CC5)c4Cl)c(C(N)=O)s3)c2cc1OC [Example 39, 1,1-Dimethylethyl 4-[({3-[(1R)-1-({2-(aminocarbonyl)-5-[5,6-bis(methyloxy)-1H-benzimidazol-1-yl]-3-thienyl}oxy)ethyl]-2-chlorophenyl}oxy)methyl]-1-piperidinecarboxylate] | 500 to 1000 nM
COc1cc2ncn(-c3cc(O[C@H](C)c4cccc(OCC5CCNCC5)c4Cl)c(C(N)=O)s3)c2cc1OC [Example 40, 5-[5,6-Bis(methyloxy)-1H-benzimidazol-1-yl]-3-[((1R)-1-{2-chloro-3-[(4-piperidinylmethyl)oxy]phenyl}ethyl)oxy]-2-thiophenecarboxamide] | < 500 nM
COc1cc2ncn(-c3cc(O[C@H](C)c4cccc(OCC5CCN(C)CC5)c4Cl)c(C(N)=O)s3)c2cc1OC [Example 41, 5-[5,6-Bis(methyloxy)-1H-benzimidazol-1-yl]-3-{[(1R)-1-(2-chloro-3-{[(1-methyl-4-piperidinyl)methyl]oxy}phenyl)ethyl]oxy}-2-thiophenecarboxamide] | < 500 nM
COc1cc2ncn(-c3cc(O[C@H](C)c4cccc(OCCN5CCN(C)CC5)c4Cl)c(C(N)=O)s3)c2cc1OC [Example 42, 5-[5,6-Bis(methyloxy)-1H-benzimidazol-1-yl]-3-{[(1R)-1-(2-chloro-3-{[2-(4-methyl-1-piperazinyl)ethyl]oxy}phenyl)ethyl]oxy}-2-thiophenecarboxamide] | < 500 nM
C[C@@H](Oc1cc(-n2cnc3cc(-c4cnn(C)c4)ccc32)sc1C(N)=O)c1cccc(OCC2CCN(C(=O)OC(C)(C)C)CC2)c1Cl [Example 43, 1,1-Dimethylethyl 4-[({3-[(1R)-1-({2-(aminocarbonyl)-5-[5-(1-methyl-1H-pyrazol-4-yl)-1H-benzimidazol-1-yl]-3-thienyl}oxy)ethyl]-2-chlorophenyl}oxy)methyl]-1-piperidinecarboxylate] | > 1000 nM
C[C@@H](Oc1cc(-n2cnc3cc(-c4cnn(C)c4)ccc32)sc1C(N)=O)c1cccc(OCC2CCNCC2)c1Cl [Example 44, 3-[((1R)-1-{2-Chloro-3-[(4-piperidinylmethyl)oxy]phenyl}ethyl)oxy]-5-[5-(1-methyl-1H-pyrazol-4-yl)-1H-benzimidazol-1-yl]-2-thiophenecarboxamide trifluoroacetate] | < 500 nM
C[C@@H](Oc1cc(-n2cnc3cc(-c4cnn(C)c4)ccc32)sc1C(N)=O)c1cccc(OC2CCN(C(=O)OC(C)(C)C)CC2)c1Cl [Example 46, 1,1-Dimethylethyl 4-({3-[(1R)-1-({2-(aminocarbonyl)-5-[5-(1-methyl-1H-pyrazol-4-yl)-1H-benzimidazol-1-yl]-3-thienyl}oxy)ethyl]-2-chlorophenyl}oxy)-1-piperidinecarboxylate] | < 500 nM
